In US20160113888A1, “PHARMACEUTICAL COMPOSITION FOR TREATMENT OF CANCER” (NATIONAL INSTITUTE OF ADVANCED INDUSTRIAL SCIENCE AND …, priority 2013, published 2016):

Legend:
[1] = test system: human osteosarcoma cells (U2OS); assay: Cytotoxicity assay using MTT, U2OS; assay type: cell-based; details: FIG. 5
Protocol: (§1) Human osteosarcoma cells (U2OS) were cultured in a humidified incubator (37° C., 5% CO2) using a medium in which Dulbecco's modified Eagle's medium (DMEM, Invitrogen) is added with 10% bovine fetal serum. The cells were cultured to become 40% to 60% confluent and treated with AshLe-WEX (final concentration: 1%; 200 μg/mL) and the 1st and 2nd fractions thereof (AshLe-WEX-F1 and F2), respectively. The cells were treated over about 48 hours during culture at 37° C.
(§2) AshLe-WEX and the fractions thereof were evaluated in terms of cytotoxicity by assay using MTT. After the above treatment, MTT (0.5 mg/mL) was added to each cell culture medium, followed by incubation for 4 hours. Next, the medium containing MTT was removed and 100 μL of DMSO was added to each well to completely dissolve formazan crystals. Absorbance was detected at 550 nm using a spectrophotometer (Wallac ARVO SX).
(§3) Cytotoxicity of triethylene glycol to human osteosarcoma cells (U2OS) and normal human fibroblasts (TIG-1) was tested in the manner described in item 5 above. […] Further, cell cycle analysis was conducted using human osteosarcoma cells (U2OS).

[2] = test system: normal human fibroblasts (TIG-1); assay: Cytotoxicity assay using MTT, TIG-1; assay type: cell-based; details: TIG-1, FIG. 5
Protocol: as §1, §2, §3

[3] = test system: human osteosarcoma cells (U2OS); assay: Cell cycle analysis; assay type: cell-based; details: FIG. 6
Protocol: as §3

[4] = test system: HT1080 cells (human fibrosarcoma cells); assay: In vivo antitumor assay, HT1080 subcutaneous xenograft; set-up: species or system Balb/c nude mice; details: oral administration, 250 μL of 5% triethylene glycol with 2% carboxymethyl cellulose, 12 times at intervals of two days, FIG. 7
Protocol: (§4) In vivo antitumor assay of AshLe-WEX and triethylene glycol was conducted using subcutaneous xenograft and tail vein metastasis model mice produced with the use of HT1080 cells from an invasive tumor with high lung metastasis (human fibrosarcoma cells, obtained from the JCRB Cell Bank).
HT1080 cells (6×10^6 cells in 0.2 mL of growth medium) were subcutaneously injected into Balb/c nude mice (4-week-old female mice purchased from CLEA Japan, Inc.) at two sites per mouse, and an equivalent amount of the same was injected into the tail vein of each mouse. 2% carboxymethyl cellulose was administered with feed to a control group. A mixture containing AshLe-WEX (100-250 mg/kg body weight/administration) and 2% carboxymethyl cellulose was administered with feed to an AshLe-WEX group. A TEG group was given a 5% triethylene glycol aqueous solution via oral administration (at a dose per administration of 250 μL of a preparation of 5% triethylene glycol mixed with 2% carboxymethyl cellulose) or intraperitoneal injection (at a dose per administration of 100 μL of 5% triethylene glycol). […] For metastasis assay, each mouse was euthanized by cervical dislocation 5 weeks after tail vein injection, the lung was fixed with 4% formaldehyde, and the number of tumor colonies was counted. […]

[5] = test system: HT1080 cells (human fibrosarcoma cells); assay: In vivo tumor metastasis assay, HT1080 tail vein injection; set-up: species or system Balb/c nude mice
Protocol: as §4, with “AshLe-WEX” left out, “Bank). […] This administration treatment was started on day 8 after injection of HT1080 cells and repeated 12 times in total at intervals of two days. […] This assay was repeated twice using three mice for each group.” for “Bank).”

[6] = test system: HT1080 cells; assay: In vitro Matrigel invasion assay; assay type: cell-based, human; details: FIG. 9
[7] = test system: p53; assay: Western blotting of p53 in U2OS; assay type: cell-based, human
Excerpt: (§5) In order to investigate the cytotoxicity action mechanism of triethylene glycol, human osteosarcoma cells (U2OS) and normal human fibroblasts (TIG-1) were each treated with […] or triethylene glycol (TEG), and the expression of cancer-inhibiting proteins p53 and pRB was examined by SDS-PAGE and Western blotting. […] Numbers 1-5 in the bar charts of the expression level in the lower half of FIG. 10A correspond to numbers 1-5 of the lanes in the photo images in the upper half of FIG. 10A.

[8] = test system: p53; assay: Western blotting of p53 in TIG-1; assay type: cell-based, human; details: normal cells (TIG-1)
Excerpt: as §5

[9] = test system: p21; assay: Western blotting of p21 in TIG-1; assay type: cell-based, human; details: normal cells (TIG-1), 48 hours, vs control, FIG. 10A
Excerpt: as §5

[10] = test system: pRB; assay: Western blotting of pRB in U2OS; assay type: cell-based, human
Excerpt: as §5

[11] = test system: pRB; assay: Western blotting of pRB in TIG-1; assay type: cell-based, human; details: normal cells (TIG-1), vs control
Excerpt: as §5

[12] = test system: cyclin-B1; assay: Western blotting of cyclin-B1 in U2OS; assay type: cell-based, human; details: cancer cells (U2OS), FIG. 10B
Excerpt: as §5, with “10A. […] In parallel with the above, the expression levels of cyclin-B1, -D1, and -E1 and CDK-2, -4, and -6 were examined. […] On the other hand, the tendency regarding the expression levels for cyclin-D1 was the opposite of that for cyclin-B1. In the case of treatment with triethylene glycol, the expression level of cyclin-D1 increased in cancer cells but decreased in normal cells. The expression level of cyclin-E1 increased in both cancer cells and normal cells. The expression level of CDK-4 decreased in normal cells.” for “10A.”

[13] = test system: cyclin-B1; assay: Western blotting of cyclin-B1 in TIG-1; assay type: cell-based, human; details: normal cells (TIG-1), vs control, FIG. 10B
Excerpt: as §5, with “10A. […] In parallel with the above, the expression levels of cyclin-B1, -D1, and -E1 and CDK-2, -4, and -6 were examined. […] On the other hand, the tendency regarding the expression levels for cyclin-D1 was the opposite of that for cyclin-B1. In the case of treatment with triethylene glycol, the expression level of cyclin-D1 increased in cancer cells but decreased in normal cells. The expression level of cyclin-E1 increased in both cancer cells and normal cells. The expression level of CDK-4 decreased in normal cells.” for “10A.”

[14] = test system: cyclin-D1; assay: Western blotting of cyclin-D1 in U2OS; assay type: cell-based, human; details: cancer cells (U2OS), FIG. 10B
Protocol: (§6) In order to investigate the cytotoxicity action mechanism of triethylene glycol, human osteosarcoma cells (U2OS) and normal human fibroblasts (TIG-1) were each treated with AshLe-WEX or triethylene glycol (TEG), and the expression of cancer-inhibiting proteins p53 and pRB was examined by SDS-PAGE and Western blotting. Treatment with AshLe-WEX or triethylene glycol (TEG) was conducted by adding AshLe-WEX (final concentration: 0.5%) or triethylene glycol (final concentration: 0.5%, 1.0%, or 2.0%) to a medium for culturing cells and culturing for 48 hours. […] Numbers 1-5 in the bar charts of the expression level in the lower half of FIG. 10A correspond to numbers 1-5 of the lanes in the photo images in the upper half of FIG. 10A. […] It was found based on the proportion of phosphorylated-p53/p53 that phosphorylation rate increased in cells treated with AshLe-WEX or triethylene glycol by 30% to 40%, as compared with the control group. […] The proportion of phosphorylated-pRB/RB decreased from about 0.5 in control cells to about 0.3 in cells treated with triethylene glycol ([…]) while it increased by about 20% in normal cells in contrast.
(§7) In parallel with the above, the expression levels of cyclin-B1, -D1, and -E1 and CDK-2, -4, and -6 were examined. […] On the other hand, the tendency regarding the expression levels for cyclin-D1 was the opposite of that for cyclin-B1. […]

[15] = test system: cyclin-D1; assay: Western blotting of cyclin-D1 in TIG-1; assay type: cell-based, human; details: normal cells (TIG-1), FIG. 10B
Protocol: as §6, §7

[16] = test system: cyclin-E1; assay: Western blotting of cyclin-E1 in U2OS; assay type: cell-based, human; details: cancer cells (U2OS), FIG. 10B
Protocol: as §6, §7

[17] = test system: cyclin-E1; assay: Western blotting of cyclin-E1 in TIG-1; assay type: cell-based, human; details: normal cells (TIG-1), FIG. 10B
Protocol: as §6, §7

[18] = test system: CDK-4; assay: Western blotting of CDK-4 in TIG-1; assay type: cell-based, human; details: normal cells (TIG-1), FIG. 10B
Protocol: as §6, §7

[19] = test system: pRB; assay: Immunohistochemistry of pRB phosphorylation in U2OS; assay type: cell-based, human; details: cancer cells (U2OS), 0.5%, 48 hours, FIG. 11
Protocol: (§8) Immunohistochemistry was conducted for visualizing the degree of phosphorylation of p53 and pRB in human osteosarcoma cells (U2OS) and normal human fibroblasts (TIG-1) treated with […] or triethylene glycol. Treatment with […] or triethylene glycol was conducted by adding […] or triethylene glycol to a medium such that a final concentration becomes 0.5% and culturing the cells in each medium for 48 hours. The cells were stained with an anti-p53 antibody (DO-1) and an anti-pRB antibody ([…]). Immunostaining was visualized using an Alexa-488- or Alexa-594-labeled secondary antibody. Regarding pRB, which is a downstream effector of a cyclin-CDK complex, the degree of phosphorylation decreased in cancer cells treated with […] or triethylene glycol but increased in normal cells treated with […] or triethylene glycol (FIG. 11).

[20] = test system: pRB; assay: Immunohistochemistry of pRB phosphorylation in TIG-1; assay type: cell-based, human; details: normal cells (TIG-1), 0.5%, 48 hours, FIG. 11
Protocol: as §8

[21] = test system: Keap1; assay: Western blotting of Keap1 expression; assay type: cell-based; details: human lung cancer cells (A549), FIG. 13
[22] = test system: MMP-3; assay: Expression level of MMP-3; assay type: cell-based, human; details: A549, 48 hours, AshLe-WEX 0.5% or TEG 0.5%, 1.0% or 2.0%, FIG. 14
Excerpt: (§9) In order to examine the antimetastatic activity mechanism of […] and triethylene glycol, the expression levels of matrix metalloproteases (MMP-9, MMP-3, and MMP-2) were examined. Human lung cancer cells (A549) were used for examination. […] This effect was not observed for MMP-2.

[23] = test system: MMP-9; assay: Expression level of MMP-9; assay type: cell-based, human; details: A549, 48 hours, AshLe-WEX 0.5% or TEG 0.5%, 1.0% or 2.0%, FIG. 14
Excerpt: as §9

[24] = test system: MMP-2; assay: Expression level of MMP-2; assay type: cell-based, human; details: A549, 48 hours, AshLe-WEX 0.5% or TEG 0.5%, 1.0% or 2.0%, FIG. 14
Excerpt: as §9

[25] = test system: glioblastoma cells (C6 Glioma cells); assay: Differentiation induction assay of glioblastoma cells; assay type: cell-based; details: 0.6%, 48 hours
Protocol: Differentiation induction of glioblastoma cells and neuroblastoma cells by triethylene glycol was examined. Differentiation of glioblastoma cells was induced by treating the cells with 100 μmol of hydrogen peroxide for 2 to 3 hours and then culturing the cells in a medium containing […] or triethylene glycol (final concentration: 0.6%) for 48 hours. Cells of a control group were treated with hydrogen peroxide in the above manner and then cultured in a medium containing neither […] nor triethylene glycol.

[26] = test system: IMR32 neuroblastoma cells; assay: Differentiation induction assay of neuroblastoma cells; assay type: cell-based; details: 0.5%, FIG. 16
Protocol: Next, effects on IMR32 neuroblastoma cells treated with […] or triethylene glycol were examined. Differentiation of neuroblastoma cells was induced by treating the neuroblastoma cells with 100 μmol of hydrogen peroxide for 2 to 3 hours and then culturing the cells in a medium containing […] or triethylene glycol (final concentration: 0.5%). As control groups, a group of cells that had been treated with hydrogen peroxide in the above manner and then cultured in a medium containing neither […] nor triethylene glycol and a group of cells that no hydrogen peroxide treatment was conducted and cultured in a medium containing neither […] nor triethylene glycol without hydrogen peroxide treatment were prepared.

[27] = cancer cells (U2OS), vs control

OCCOCCOCCO [triethylene glycol]
concentration at which cancer cell growth is inhibited [1]: ≥ 0.5%
toxicity to normal human fibroblasts [2]: substantially no toxicity
cell cycle effect [3]: G1 arrest
tumor growth [4]: effect of tumor growth inhibition was confirmed
antimetastatic activity ([5]; lung, 5 weeks after tail vein injection, FIG. 8): powerful antimetastatic activity
number of lung tumors ([5]; vs control group, FIG. 8): lower than that of the control group
lung tumor volumes ([5]; vs control group, FIG. 8B): significantly low
invasion [6]: reduced
expression level of p53 ([7]; U2OS, 48 hours, AshLe-WEX 0.5% or TEG 0.5%, 1.0% or 2.0%, vs control, FIG. 10A): increased
phosphorylated-p53 protein ([7]; cancer cells (U2OS), anti-phosphoserine-specific antibody): increased
expression level of p53 ([8]; 48 hours, vs control, FIG. 10A): increased
phosphorylated-p53 protein ([8]; anti-phosphoserine-specific antibody): increased
expression level of p21 [9]: increased
proportion of phosphorylated-pRB/RB ([10]; cancer cells (U2OS) treated, control cells about 0.5): about 0.3
decrease of proportion of phosphorylated-pRB/RB [10, 27]: about 20%
phosphorylated-pRB [10, 27]: decreased
increase of proportion of phosphorylated-pRB/RB [11]: about 20%
phosphorylated-pRB [11]: increased
expression level of cyclin-B1 [12]: decreased
expression level of cyclin-B1 [13]: increased
expression level of cyclin-D1 [14]: increased
expression level of cyclin-D1 [15]: decreased
expression level of cyclin-E1 [16]: increased
expression level of cyclin-E1 [17]: increased
expression level of CDK-4 [18]: decreased
degree of phosphorylation of pRB (immunohistochemistry) [19]: decreased
degree of phosphorylation of pRB (immunohistochemistry) [20]: increased
expression level of Keap1 [21]: increase
expression level of MMP-3 [22]: remarkably decreased
expression level of MMP-9 [23]: remarkably decreased
decrease of expression level of MMP-2 [24]: not observed
cell form (differentiation induction) ([25]; after 100 μmol hydrogen peroxide 2 to 3 hours, FIG. 15A): astrocyte-like form
induction of GFAP (glial cell differentiation marker protein) ([25]; after hydrogen peroxide, FIG. 15B): upregulated
cell form (differentiation induction) ([26]; after 100 μmol hydrogen peroxide 2 to 3 hours): neuron-like form
neurofilament protein (NF200) ([26]; after hydrogen peroxide): increase
